Source: ChEMBL document CHEMBL1136212, “Structure-based design of 2-arylamino-4-cyclohexylmethyl-5-nitroso-6-aminopyrimidine inhibitors of cyclin-dependent kinases 1 and 2” (Bioorg Med Chem Lett, 2003)

Key:
[1] = biological target: Cyclin-dependent kinase 1 (Homo sapiens, UniProt P06493)
Description: Inhibition of Cyclin-dependent kinase 1 (CDK1) at 12.5 uM ATP

[2] = biological target: Cyclin-dependent kinase 2 (Homo sapiens, UniProt P24941)

Sequence of Cyclin-dependent kinase 1 (P06493 whole entry): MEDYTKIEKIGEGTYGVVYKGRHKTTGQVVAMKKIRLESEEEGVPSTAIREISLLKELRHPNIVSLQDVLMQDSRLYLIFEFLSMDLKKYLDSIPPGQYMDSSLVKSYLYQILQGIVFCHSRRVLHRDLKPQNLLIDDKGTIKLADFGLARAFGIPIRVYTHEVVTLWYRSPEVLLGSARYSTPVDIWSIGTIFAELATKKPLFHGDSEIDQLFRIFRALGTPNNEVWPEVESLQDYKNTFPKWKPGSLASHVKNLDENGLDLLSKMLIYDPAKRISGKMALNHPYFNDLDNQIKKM

Compound `COc1ccc(Nc2nc(N)c(N=O)c(OCC3CCCCC3)n2)cc1` has an IC50 [1] of 230 nM and an IC50 [2] of 220 nM.
`Nc1cc(OCC2CCCCC2)nc(Nc2ccc(S(N)(=O)=O)cc2)n1` was tested, and the IC50 [1] was 5300 nM and the IC50 [2] was 2900 nM.
In the case of `Nc1nc(Nc2cccc(Br)c2)nc(OCC2CCCCC2)c1N=O`, the IC50 [1] is reported as 800 nM and the IC50 [2] is reported as 500 nM.
`Nc1nc(Nc2ccc(S(N)(=O)=O)cc2)nc(OCC2CCCCC2)c1N=O` gave an IC50 [1] of 5 nM and an IC50 [2] of 1.1 nM.
With `NC(=O)c1ccc(Nc2nc(N)cc(OCC3CCCCC3)n2)cc1` the IC50 [1] was 63000 nM and the IC50 [2] was 59000 nM.
`CSc1ccc(Nc2nc(N)c(N=O)c(OCC3CCCCC3)n2)cc1` showed an IC50 [1] of 220 nM and an IC50 [2] of 120 nM.
